Experimental data from patent publication US20130196991A1, “SUBSTITUTED INDOLES, ANTIVIRAL ACTIVE COMPONENT, METHOD FOR PREPARATION AND USE THEREOF” (priority 2010, published 2013).
Structures can show the parent of a compound that is named as a salt.

tested on: JFH-1 HCV; test: microbe, parasite or virus in culture; type: cell-based, hepatitis C virus (HCV); details: Hepatitis C virus, Huh-7, read-out: Inhibition of hepatitis C virus (IC50)
Experimental: Determination of antiviral activity of compounds of the general formula 1 towards hepatitis C viruses.
Determination of antiviral activity of compounds of the general formulas 1, 1.1, 1.2, 1.3, 1.3.1, 1.3.1.1 towards HCV was carried out on Huh7 cell culture. Immune in vitro (ELISA—enzyme-linked immunosorbent assay) test ELISA towards HCV virus cor-antigen was used. By means of this test inhibition effectiveness of antigen production (and, consequently, virus replication) by tested compounds in cells infected by JFH-1 virus was measured. Used in this experiment Huh7 cell culture having been infected with HCV virus is capable to support full range of viral replication.
Recombinant JFH-1 HCV virus used in the experiment was prepared by means of transfection of Huh7 cells by RNA JFH-1, prepared by transcription in vitro. JFH-1 DNA [Wakita, T. u ∂p. Production of Infectious Hepatitis C Virus in Tissue Culture from a Cloned Viral Genome. Nature Medicine 2005, 11:791-796.]) used as DNA matrix for transcription (NCBI, catalogue number AB047639, was synthesized chemically.
Huh7 cells were sowed in 96-well plates (3.0×10^3 cells in every well) Huh-7 medium (50 μl per every well). 9 solutions of every tested compound in Huh-7 medium in the range of concentrations of 0.09-200 μM were prepared. In 4 h after cell sowing the initial solution was removed by aspiration, after that 50 μl of tested compound solution and 50 μl of JFH-1 HCV were added to every well. As a result, the final concentrations of the tested compounds were in the range of 0.045-100 μM. If required the step of infection was carried out in 24 h after addition of tested compounds. After incubation for 16 h viral medium was removed by aspiration, and the tested compounds were added to the cultures in initial concentration to final value of 200 μl. The cells and tested compounds were incubated additionally for 4 days at 37° C. in the atmosphere of air containing 5% CO2. After the removal of nutrient solution the cells were fixed by addition of acetone/methanol (1:1) mixture in amount of 250 μl/well for 1 minute, washed three times with Phosphate Buffer (PBS buffer and then they were blocked by 10% FBS-PBS solution (150 μl/well)) for 1 h at room temperature. Each well was washed three times with PBS solution, incubated with mouse monoclonal antibodies to HCV cor-antigen (Affinity BioReagents, Catalogue: MA1-080), dissolved in FBS-PBS buffer (100 μl/well, prepared from the initial concentrate, diluted in the ratio 1:500 in 10% FBS-PBS), for 2 h at 37° C. Each well was washed three times with PBS solution, incubated with antibodies specific to mouse immunoglobulins, conjugated with horseradish peroxidase (HRP, 100 mkl/well of solution prepared from the initial concentrate, diluted in ratio 1:2500 in 10% FBS-PBS) for 1 h at 37° C. Each well was washed three times with PBS solution, then treated with OPD solution in amount of 100 μl/well (prepared by dilution of one OPD tablet in B 12 ml of citrate/phosphate buffer with addition of 5 μl of 30% H2O2) for 30 min in darkness at room temperature. The reaction was stopped by addition of 2N H2SO4 (100 μl/well), after that optical density at 490 nm was measured. IC50 value representing the concentration of the tested compound at which virus replication is lowered twice was calculated for every tested compound using Xlfit program according to the method described in [Wakita, T. u ∂p. (2005). Production of Infectious Hepatitis C Virus in Tissue Culture from a Cloned Viral Genome. Nature Medicine; 11:791-796.].

Row | Compound | IC50
1 | CC(C)c1ccc2c(c1)c1c3n2CCN(CC(N)=O)C3CCC1 (centres unmarked) [1.2(1), 2-(8-isopropyl-1,2,3a,4,5,6-hexahydro-3H-pyrazino[3,2,1-jk]carbazol-3-yl)-acetamide] | 1700 nM
2 | CCCN1CCN(C(=O)C2CCN(Cc3cc4ccccc4n3Cc3ccc(Cl)cc3)CC2)CC1 [1.3.1.1(13), {1-[1-(4-chlorobenzyl)-1H-indol-2-ylmethyl]-piperidin-4-yl}-(4-propylpiperazin-1-yl)-methanone] | 300 nM
3 | CN1CCN(C(=O)C2CCN(Cc3cc4ccccc4n3C)CC2)CC1 [1.3.1.1(15) * 2 HCl, 1-Methyl-2-({4-[(4-methylpiperazin-1-yl)carbonyl]piperidin-1-yl}methyl)-1H-indole] | 2400 nM
4 | c1ccc(CN2CCCn3c4c(c5cc(C6CCCCC6)ccc53)CCCC42)cc1 (centres unmarked) [1.2(8)] | 1600 nM
5 | Clc1ccc(Cn2c(CN3CCCC3)nc3ccccc32)cc1 [I Control, Clemizole, reference compound] | 9000 nM
6 | CCCN1CCN(C(=O)C2CCCN(Cc3cc4ccccc4n3Cc3ccc(Cl)cc3)C2)CC1 (centres unmarked) [1.3.2.1(13) * 2 HCl, 1-(4-chlorobenzyl)-2-({3-[(4-propylpiperazin-1-yl)carbonyl]piperidin-1-yl}methyl)-1H-indole dihydrochloride] | 400 nM
7 | CCCN1CCN(C(=O)C2CCN(Cc3cc4ccccc4n3C)CC2)CC1 [1.3.1.1(14) * 2 HCl, 1-Methyl-2-({4-[(4-propylpiperazin-1-yl)carbonyl]piperidin-1-yl}methyl)-1H-indole dihydrochloride] | 2100 nM

same assay, conditions: Huh7 cell culture infected with recombinant JFH-1 HCV; ELISA of cor-antigen; concentration at which virus replication is lowered twice; read-out: Inhibition of hepatitis C virus (IC50)

Row | Compound | IC50
8 | CCCN1CCN(C(=O)C2CCCN(Cc3cc4ccccc4n3C)C2)CC1 (centres unmarked) [1.3.2.1(14) * 2 HCl, 1-Methyl-2-({3-[(4-propylpiperazin-1-yl)carbonyl]piperidin-1-yl}methyl-1H-indoledihydrochloride] | 2100 nM
